We go through 10 compounds from PubChem BioAssay (NCI).

Assay in all cases: NCI tumour cell line growth inhibition, 48 h
Assay [1] has as its system SN12K1 renal.
Assay [2] has as its system HOP-18 NSCLC.
The test system of assay [3] is DLD-1 colon.
Assay [4] relates to MOLT-4 leukemia.
Assay [5] deals with XF 498 CNS.
The subject of assay [6] is KM20L2 colon.
Assay [7] deals with SNB-78 CNS.
Assay [8] concerns P388 leukemia.
Assay [9] relates to MDA-N.
Assay [10] relates to T-47D breast.
Assay [11] relates to BT-549 breast.
For assay [12], the system named is DU-145 prostate.
The test system of assay [13] is M14 melanoma.

Values joined by “and” are separate entries in the source; they are usually repeats but may differ in a detail not shown here. Equal values may be shown once.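 Assay format: 96-well plates, 48-hour exposure. The concentration for 50% growth inhibition is given as GI50. Definition used: TGI = concentration required for complete inhibition of growth.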

Take `CC1(C)CC23C4COC(=O)C2CCC1C3CC4=O` (stereo not given): the TGI in [1] turned out to be 48.2 µM; in assay [2] it was 5.11 µM; in assay [3], 42.6 µM; in assay [4] it was 63.2 µM; in assay [5], 27.2 µM; in assay [6], 54.6 µM. Also, the TGI in [7] stood at 73.4 µM; in [8], 111 µM.
`COC1=C2CC(C)CC(OC)C(O)C(C)/C=C(\C)C(OC(N)=O)C(OC)/C=C\C=C(/C)C(=O)NC(=C(C=NC(C)(C)C)C1=O)C2=O` (stereo not given): the TGI amounted to 31.2 µM in assay [1]; 33.7 µM in assay [2]; 45.7 µM in assay [3]; 12.1 µM in assay [4]; 3.09 µM in assay [5]; 14.6 µM in assay [6]. Besides, the TGI in assay [7] turned out to be 46.2 µM; in assay [8], 8.79 µM.
`CC[C@]1(O)C[C@H]2CN(CCc3c([nH]c4ccccc34)[C@@](C(=O)OC)(c3cc4c(cc3OC)N(C=O)[C@H]3[C@@](O)(C(=O)OC)[C@H](OC(C)=O)[C@]5(CC)C=CCN6CC[C@]43[C@@H]65)C2)C1`: the TGI was 0.134 µM in assay [1]; 87.3 µM in [2]; 144 µM in assay [3]; 7.59 µM and 48 µM and 23.3 µM in assay [4]; 2.5 µM in assay [5]; 0.206 µM in assay [6]. The TGI is 109 µM in [7]; 7.83 µM in assay [8]; 399 µM and 171 µM in [10]. Also, the GI50 is below 0.001 µM in assay [9] and 112 µM in [10].
With `COc1cc2c(cc1OC)-c1cc3ccccc3c[n+]1CC2`, the TGI in [11], in assay [4], in assay [9], in assay [12], in assay [13] and in assay [10] was above 100 µM each time.
As to `O=C1OC(c2ccccc2)=N/C1=C\c1cccnc1`, the TGI in assay [11], in assay [4] and in assay [13] was above 100 µM in each case.
Regarding `CCS(=O)(=O)N1CCC(C(C)n2c(C)c(C(=O)NCc3c(OC)cc(C)[nH]c3=O)c3ccccc32)CC1` (stereo not given), the GI50 in [12] and in assay [10] was above 100 µM throughout. Also, the TGI in assay [12] and in [10] was above 100 µM in each case.
In the case of `N/C(=N\N=C/c1ccccc1O)NO`, the TGI in [1] was above 100 µM; in assay [2] it was above 100 µM; in assay [3], above 45.6 µM; in assay [4], above 70.2 µM; in assay [5], 37.4 µM; in assay [6], above 100 µM. Further, the TGI was above 96.6 µM in assay [7] and 18.7 µM in assay [8].
In the case of `CS(=O)(=O)c1ccc(/C=N/NC(N)=S)cc1`, the TGI in assay [11], in [4], in [9], in [12], in assay [13] and in assay [10] was above 100 µM each time.
On to `O=C1OC[C@@H]2[C@@H](O)CCCCCN12`, for which the TGI in assay [11], in assay [4], in [9], in assay [12] and in assay [10] was above 100 µM each time.
On to `O=C(Nc1cccc(-n2ccc3c(NC(=O)c4ccccc4)nccc32)c1)c1ccc(N2CCOCC2)c(C(F)(F)F)c1`, for which the GI50 in [11] was 0.183 µM; in assay [4], 0.128 µM; in [13], 0.0386 µM. In addition, the TGI was above 67.7 µM in [11], above 100 µM in [4] and above 100 µM in assay [13].
